In test [1] the target is T1, human CXCR4 (hCXCR4) receptor (Homo sapiens, UniProt P61073).
T1 construct: expressed in transfected cells; host or cells: HEK-293 T cells, transient co-transfection with polyethylenimine
As to the kind of experiment: BRET assay of antagonist activity on the CXCR4-CXCL12 signaling pathway (Gαi2 recruitment) in HEK-293 T cells. It counts as cell-based. As to conditions: HEK-293 T cells with hCXCR4, Gαi2 and BRET biosensors; 10 min with compound, then EC80 CXCL12. The method, then:
Examples of the present invention were tested for their antagonist activity on human CXCR4 (hCXCR4) receptor transiently over-expressed in HEK-293 T cells. Compounds exert antagonist activity if they decrease the action of CXCL12 on the receptor.
The specific effector (luciferase tagged: BRET donor) recruited at the membrane will be in close proximity to a plasma membrane anchor (GFP tagged: BRET acceptor) to induce a BRET signal (Hamdan et a1, 2006, Chapter 5, Current Protocols in Neuroscience).
HEK-293 T cells are maintained in Dulbecco's Modified Eagle's Medium supplemented with 10% Foetal Calf Serum, 1% Penicillin/Streptomycin at 37° C./5% CO2. Cells are co-transfected using polyethylenimine (25 kDa linear) with several DNA plasmids encoding: hCXCR4; Gai2; an intracellular effector fused to luciferase (BRET donor); a plasma membrane effector fused to GFP (BRET acceptor). After transfection, cells are cultured for 48 h at 37° C./5% CO2. On the day of the assay, cells are detached using trypsin 0.05%, resuspended in assay buffer (1.8 mM CaCl2, 1 mM MgCl2, 2.7 mM KCl, 137 mM NaCl, 0.4 mM NaH2PO4, 5.5 mM D-Glucose, 11.9 mM NaHCO3, 25 mM Hepes) and seeded in 384 well plate at a density of 20,000 cells per well. Then, plates are equilibrated 3.5 h at 37° C. before adding compounds. Compounds and luciferase substrate are added to the cells using an automated device (Freedom Evo®, Tecan) and BRET readings are collected on EnVision (PerkinElmer) with specific filters (410 nm BW 80 nm, 515 nm BW 30 nm).
Cells are first incubated for 10 minutes with the compound alone. Then, cells are stimulated by an EC80 CXCL12 concentration for additional 10 minutes and luminescence is recorded. EC80 CXCL12 concentration is the concentration giving 80% of the maximal CXCL12 response. Antagonist activity is evaluated in comparison to basal signals evoked by EC80 CXCL12 alone.
For IC50 determination, a dose-response test is performed using 20 concentrations (ranging over 6 logs) of each compound. Dose-response curves are fitted using the sigmoidal dose-response (variable slope) analysis in GraphPad Prism software (GraphPad Software) and IC50 of antagonist activity is calculated. Dose-response experiments are performed in duplicate, in two independent experiments.
HEK-293 T cells were transfected to allow measuring the recruitment of Gai2 proteins involved in intracellular signaling by human CXCR4 receptor (hCXCR4) via the BRET technology. Cells were then incubated with various concentrations of examples of the invention before stimulation with an EC80 concentration of CXCL12.
Background: BRET reads energy transfer from a luciferase to a nearby fluorophore.

The target in test [2] is T2, Recombinant CXCR4 receptor (Homo sapiens, UniProt P61073).
T2 construct: host or cells: HEK-293 T cells
T2 sequence (P61073 whole entry): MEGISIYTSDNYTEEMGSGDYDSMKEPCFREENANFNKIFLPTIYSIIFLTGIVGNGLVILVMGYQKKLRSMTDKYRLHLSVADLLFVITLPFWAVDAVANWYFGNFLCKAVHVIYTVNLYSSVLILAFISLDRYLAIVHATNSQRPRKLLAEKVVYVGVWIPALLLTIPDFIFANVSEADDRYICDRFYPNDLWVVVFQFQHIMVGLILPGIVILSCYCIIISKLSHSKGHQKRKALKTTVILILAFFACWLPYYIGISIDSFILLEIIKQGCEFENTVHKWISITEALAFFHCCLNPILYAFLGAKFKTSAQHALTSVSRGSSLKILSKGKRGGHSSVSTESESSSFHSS
Briefly: G.Validation fluorescence assay of CXCR4 receptor conformational changes in lipidic micelles SB2L4 and SB3L1. It is filed as biochemical. As to conditions: ligand 150 μM over basal state, 5 μM labelled CXCR4, 40 min. The source says:
G.Validation® assay is […] biotech proprietary fluorescence based assay that assesses conformational changes of a receptor upon activation/inactivation. Recombinant CXCR4 receptor is produced and purified from HEK-293 T cells using […] proprietary mixes. Receptor is then reconstituted in detergent buffers containing lipids mimicking the lipidic composition of dendritic cells (DC) and macrophages (SB2L4 and SB3L1). Thereafter, the receptor is labelled with a non-modifying probe allowing the detection of the activation state and conformational change of the receptor upon addition of a ligand. Indeed, the probe emission spectra maximum wavelength (Amax) shifts according to activation/inactivation of the receptor. Thus, kinetic of activation/inactivation of the receptor can be followed by monitoring Amax shift after addition of a ligand over time. Emission spectra were registered for 40 minutes after addition of each ligand. […] Activation/inactivation kinetics were also followed using an exemplary compound of formula (I), i.e.

Structures are written as SMILES. Counter-ions that a name gives are not always drawn.

T1 sequence (P61073 whole entry): as above

A word on the IC50: it is the concentration that inhibits the measured activity by half. With `Clc1ccc2c(c1)CN=C(SCCCCN1CCCC1)N2` [Example 60, 6-chloro-2-((4-(pyrrolidin-1-yl)butyl)thio)-1,4-dihydroquinazoline dihydrochloride], the half-inhibitory concentration (IC50) in test [1] was at least 15 µM. In test [2], the “CXCR4 structural activation/inactivation, Amax shift in fluorescence” value is “blue shift”.

These data come from US20240018125A1, “CYCLIC ISOTHIOUREA DERIVATIVES AS CXCR4 MODULATORS” (ERMIUM THERAPEUTICS, priority 2020, published 2024).
